Legend:
phosphatase PTP1B = phosphatase PTP1B (Homo sapiens, UniProt P18031); conditions: spotted with 1 mM peptide solution; one hour incubation with PTP1B in Tris-buffer containing DTT; FIG. 7
Method: After one hour incubation with phosphatase PTP1B in a Tris-buffer containing DTT, the microarray was washed and treated with a solution of PY20 antibody. […] The left image: not treated with PTP1B. The right image: treated with PTP1B.

phosphatase = conditions: FIG. 5
Method: A Tris buffer (25 μL, 50 mM, pH 7.4, modified with 0.5 mM DTT) was used to dissolve the appropriate phosphatase (20-100 ng) together with BSA (0.25 μL, 10 mg/mL), anti-nitrotyrosine antibody (0.5 μL, 0.5 mg/mL in PBS pH 7.4), FITC-goat-anti-mouse antibody (0.5 μL, 4 μg/mL). The resulting mixture was added to Pamchip® microarrays and the fluorescence imaged in real time using a Pamstation® PS12 instrument. The images were analyzed using the Bionavigator software package (Pamgene International BV, 's-Hertogenbosch, The Netherlands).
To the mixture described in Example 14, a 1 μL amount of sodium vanadate solutions with appropriate concentration was added.

phosphatase PTP1B, sequence (P18031 whole entry): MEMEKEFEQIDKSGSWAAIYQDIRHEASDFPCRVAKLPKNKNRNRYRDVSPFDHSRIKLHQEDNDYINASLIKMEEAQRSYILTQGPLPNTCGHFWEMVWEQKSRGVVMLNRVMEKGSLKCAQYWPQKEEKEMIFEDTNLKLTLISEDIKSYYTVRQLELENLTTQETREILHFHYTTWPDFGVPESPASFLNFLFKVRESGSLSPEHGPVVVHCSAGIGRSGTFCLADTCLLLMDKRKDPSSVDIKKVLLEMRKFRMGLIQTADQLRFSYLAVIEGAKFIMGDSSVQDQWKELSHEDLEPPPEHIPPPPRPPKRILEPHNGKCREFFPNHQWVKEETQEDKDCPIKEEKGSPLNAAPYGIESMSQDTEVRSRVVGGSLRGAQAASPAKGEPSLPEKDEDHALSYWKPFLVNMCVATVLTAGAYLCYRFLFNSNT

Substance | recognition as substrate and dephosphorylation by phosphatase (phosphatase PTP1B) | inhibition of the phosphatase enzyme activity (phosphatase)
H-CDADE-(3-Br-pY)-LIPQQG-NH2 [3-bromo-phosphotyrosine peptide] | recognized by the phosphatase and dephosphorylated equally well | –
sodium ortho-vanadate | – | concentration dependent inhibition
